Experiments:
HT-1080-FAP tumor [1] = experiment: ^225Ac radionuclide therapy experiment in tumor mouse model; format: in vivo; conditions: ^225Ac-labeled, treatment on day 0 and day 4, same or higher dose; vs normal saline or FAPI-04 control group
Description: (§1) When the average tumor size reached about 100 mm^3, HT-1080-FAP tumor mice in the same batch were randomly divided into five groups, with n=7 or 8 in each group. Two rounds of treatment were then carried out on day 0 and day 4. […] The tumor size and weight of the mice were monitored every 2 or 3 days.

HT-1080-FAP tumor [2] = experiment: PET/CT imaging in HT-1080-FAP tumor-bearing mouse model; format: in vivo; conditions: ^68Ga label, 18.5 MBq via tail vein, p<0.005
Description: Mouse model: Nu/Nu mice (SPF grade) were purchased from Beijing Charles River Laboratories (China) and injected subcutaneously with HT-1080-FAP cells to construct a tumor model with high FAP expression.
All PET/CT scans were carried out on Mediso nanoScan® PET 122S small animal PET/CT.
After a certain number of HT-1080-FAP tumor mice were taken and injected via the tail vein with 7.4-18.5 MBq of ^68Ga/^86Y-FAPI-04 (control) and ^68Ga/^86Y-FAPI-CB series molecules at specified time points (Note: the injection of the control and investigation molecules was separated apart by at least five half-lives of the nuclide to ensure that the radioactivity of the previous probe had almost completely decayed and was essentially completely metabolized), imaging was carried out at specified time points. In some examples, the mice were anesthetized and then sacrificed by neck breaking at a certain time point. Organs were dissected and taken for radioactivity measurement.
A ^68Ge-^68Ga generator was eluted with 5 mL of 0.6 M high-purity hydrochloric acid to obtain a Ga-68 hydrochloric acid solution. 1 mL of the Ga-68 solution after elution was taken, and 100 μL of 3 M sodium hydroxide and 130 μL of 3M sodium acetate were added to adjust the acidity to a final pH of 4.0. 12 μg of FAPI-CB-00 compound was added, and the reaction mixture was heated to 70° C. and maintained for 20 min. […]

FAP, DPP-4 and PREP = experiment: Binding selectivity to homologous proteins (competitive inhibition of enzyme substrate, IC50); format: biochemical; conditions: from IC50 values, pNA release
Description: Taking FAP target as an example, homologous proteins thereof include, but are not limited to, DPP-4 and PREP. The structural similarity thereof may lead to a decreased binding selectivity of the modified precursor molecules for the homologous proteins, resulting in an increased uptake in non-target organs.
The binding selectivity for homologous proteins was determined by a competitive inhibition experiment on the substrate of the enzymes, and the binding/inhibition selectivity thereof is indirectly evaluated by the median inhibitory concentration (IC50) values obtained.
By reference to the method described in Extended Structure-Activity Relationship and Pharmacokinetic Investigation of (4-Quinolinoyl)glycyl-2-cyanopyrrolidine Inhibitors of Fibroblast Activation Protein (FAP). Journal of Medicinal Chemistry 57, 3053-3074 (2014), published by Jansen et al., the initial rate of p-nitroaniline (pNA) released from the substrate (absorption at 405 nm) was measured by using a microplate reader (PerkinElmer, Victor™ X5) at 37° C. in a final volume of 200 μL to determine the kinetic properties of the enzyme activity. […]
The determination method for IC50 on FAP is as follows: the substrate Z-Gly-Pro-p-nitroanilide (50 μM, Cat #G-58468, HEOWNS) was used to measure FAP activity at pH 7.4. […] The mixture was then incubated at 37° C. for 6 hours, and the release of pNA was then measured. […]

HT-1080-FAP tumor [3] = experiment: ^177Lu radionuclide therapy experiment in tumor mouse model; format: in vivo; conditions: ^177Lu-labeled, treatment on day 0 and day 4, same or higher dose; vs normal saline or FAPI-04 control group
Description: as §1

Human FAP Protein = molecular target: T1, Human FAP Protein (Homo sapiens, UniProt Q12884); experiment: Surface plasmon resonance, multi-cycle mode; format: binding; conditions: SPR multi-cycle, 1:1 binding model
T1 construct: His; purchased Novoprotein (China)
T1 sequence (Q12884 1-760): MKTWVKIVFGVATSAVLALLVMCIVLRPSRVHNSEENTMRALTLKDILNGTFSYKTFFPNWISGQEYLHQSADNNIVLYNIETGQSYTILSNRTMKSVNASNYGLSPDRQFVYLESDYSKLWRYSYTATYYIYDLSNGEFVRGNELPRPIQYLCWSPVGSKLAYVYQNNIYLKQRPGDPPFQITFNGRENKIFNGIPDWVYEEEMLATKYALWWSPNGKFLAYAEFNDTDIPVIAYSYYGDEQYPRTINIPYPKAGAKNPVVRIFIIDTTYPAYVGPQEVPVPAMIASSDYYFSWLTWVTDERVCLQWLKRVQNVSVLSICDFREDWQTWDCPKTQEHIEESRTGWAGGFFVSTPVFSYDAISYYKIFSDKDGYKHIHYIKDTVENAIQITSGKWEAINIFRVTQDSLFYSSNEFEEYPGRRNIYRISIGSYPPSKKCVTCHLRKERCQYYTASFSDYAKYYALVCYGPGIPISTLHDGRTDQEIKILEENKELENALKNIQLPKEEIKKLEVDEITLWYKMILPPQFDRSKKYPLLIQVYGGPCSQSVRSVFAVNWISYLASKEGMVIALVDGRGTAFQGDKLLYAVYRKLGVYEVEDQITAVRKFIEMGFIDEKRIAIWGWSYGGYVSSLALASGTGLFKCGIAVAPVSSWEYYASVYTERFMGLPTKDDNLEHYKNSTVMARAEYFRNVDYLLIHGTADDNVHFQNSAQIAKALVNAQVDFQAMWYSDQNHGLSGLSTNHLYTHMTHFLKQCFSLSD
Description: According to US Pharmacopeia USP43 IMMUNOLOGICAL TEST METHODS-SURFACE PLASMON RESONANCE<1105> and Chinese Pharmacopoeia 2020, Volume IV, Surface plasmon resonance method, Label-free Immunochemistry (IV), 3429 Immunochemistry, General Rule, a surface plasmon resonance experiment was carried out.
A surface plasma chromatograph from Cytiva was used for measurement. Before protein injection, 400 mM condensing agent 1-ethyl-(3-dimethylaminopropyl)carbodiimide hydrochloride and 100 mM N-hydroxysuccinimide were mixed, and a CM5 sensor chip was activated with this mixture for 420 seconds at a flow rate of 10 μL/min. 50 μg/mL protein was then injected into an Fc2 sample channel at a flow rate of 10 μL/min to achieve a protein immobilization level of about 8000-15000 RU. In the control group, no protein was injected. Subsequently, the unreacted chip was blocked with 1M ethanolamine hydrochloride-NaOH at a flow rate of 10 μL/min for 420 seconds.
Different gradient solutions were injected into channels Fc1-Fc2 at a flow rate of 30 μL/min, followed by a 60-second binding phase and a 90-second dissociation phase, and data were collected.

AR42J cells = experiment: Cell affinity determination, similar method; format: cell-based
Description: (§2) HT-1080-FAP cells were inoculated into a 24-well plate 24 hours in advance, with the density being about 30% (calculated and estimated), 10^5 cells (countable) per well. 0.5 mL of a complete medium was added. The medium was changed to a serum-free medium. 12 groups of FAPI-CB-01 solutions with a concentration gradient of 0-5000 nM were set up, with internal replicates n=4 for each group. […] 0.75 nM ^68Ga-FAPI-04 was added to each well, followed by incubation at 37° C. for 1 hour. After washing twice with cold PBS and lysis, the radioactivity count was measured.
(§3) Using a similar method, the corresponding targeting PSMA-CB-05, FOLR1-CB-06, SSTR2-CB-02, Nectin4-CB-02, and CXCR4-CB-03 were determined for affinity in LNCaP cells, KB cells, AR42J cells, SW-780 cells, or Daudi cells, respectively. All of these compounds maintained good affinity.

LNCaP cells = experiment: Cell affinity determination, similar method; format: cell-based
Description: as §2, §3

With `N#C[C@@H]1CC(F)(F)CN1C(=O)CNC(=O)c1ccnc2ccc(OCCCN3CCN(C(=O)[C@H](CCCCNC(=O)c4cccc(OS(=O)(=O)F)c4)NC(=O)CN4CCN(CC(=O)O)CCN(CC(=O)O)CCN(CC(=O)O)CC4)CC3)cc12` [FAPI-CB-02] the tumor inhibition effect (HT-1080-FAP tumor [1]) was “significantly better tumor inhibition effect”, the “improvement of maximum standard tumor uptake value (SUVmax) compared with FAPI-04” value (HT-1080-FAP tumor [2]) was roughly 4 times and the “selectivity to FAP protein over homologous proteins DPP-4 and PREP” value (FAP, DPP-4 and PREP) was “high selectivity”. For the same compound, the tumor inhibition effect (HT-1080-FAP tumor [3]) was “significantly better tumor inhibition effect”.

In the case of `N#C[C@@H]1CC(F)(F)CN1C(=O)CNC(=O)c1ccnc2ccc(OCCCN3CCN(C(=O)CN4CCN(CC(=O)O)CCN(CC(=O)O)CCN(CC(=O)O)CC4)CC3)cc12` [FAPI-04, reference compound], the “Rmax (maximum theoretical analyte binding capacity)” value (Human FAP Protein) is reported as 21.7 RU, the ka (Human FAP Protein) is reported as 845000 M⁻¹ s⁻¹ and the kd (Human FAP Protein) is reported as 0.000311 s⁻¹.

`C[C@@H](O)[C@H](NC(=O)[C@@H]1CSSC[C@H](NC(=O)[C@@H](Cc2ccccc2)NC(=O)CN2CCN(CC(=O)O)CCN(CC(=O)O)CCN(CC(=O)O)CC2)C(=O)N[C@@H](Cc2ccc(OS(=O)(=O)F)cc2)C(=O)N[C@H](Cc2c[nH]c3ccccc23)C(=O)N[C@@H](CCCCN)C(=O)N[C@@H]([C@@H](C)O)C(=O)N1)C(=O)O` [SSTR2-CB-02] was tested, and the affinity (AR42J cells) was “good affinity”.

For `O=C(O)CC[C@H](NC(=O)N[C@@H](CCCCNC(=O)[C@H](Cc1ccc2ccccc2c1)NC(=O)[C@H]1CC[C@H](CNC(=O)[C@H](CCCCNC(=O)CCc2cccc(S(=O)(=O)F)c2)NC(=O)CN2CCN(CC(=O)O)CCN(CC(=O)O)CCN(CC(=O)O)CC2)CC1)C(=O)O)C(=O)O` [PSMA-CB-05], the affinity (LNCaP cells) was “good affinity”.

— US20260137820A1, “TRIFUNCTIONAL COMPOUND AND USE THEREOF” (PEKING UNIVERSITY, priority 2022, published 2026)
